The text below walks through data of paper PMC4685510, “A Cell Biologist’s Field Guide to Aurora Kinase Inhibitors” (Frontiers in Oncology, 2015).

Assay in all cases: biochemical
Type in all cases: biochemical

Assay [1] has as its target 363 human kinases (including Aurora A/B/C) (Homo sapiens, UniProt P10721). The following applies: c-Kit, [ATP] 100 µM; for remaining activity at 0.5 µM / remaining activity at 0.1 µM: read-out: % Enzyme Activity (relative to DMSO controls); for remaining activity at 0.1 µM: 100 nM.
Source text: (§1) However, the Aurora A/B selectivity ratios derived from our in vitro and in vivo data can be compared to prioritize inhibitors.
In assay [2] the target is 363 human kinases (including Aurora A/B/C) (Homo sapiens, UniProt P19784). The following applies: CK2a2, [ATP] 30 µM; for remaining activity at 0.5 µM / remaining activity at 0.1 µM: read-out: % Enzyme Activity (relative to DMSO controls); for remaining activity at 0.1 µM: 100 nM.
Source text: as §1
In assay [3] the target is T1, 363 human kinases (including Aurora A/B/C) (Homo sapiens, UniProt P52333).
T1 sequence (P52333 1-1124): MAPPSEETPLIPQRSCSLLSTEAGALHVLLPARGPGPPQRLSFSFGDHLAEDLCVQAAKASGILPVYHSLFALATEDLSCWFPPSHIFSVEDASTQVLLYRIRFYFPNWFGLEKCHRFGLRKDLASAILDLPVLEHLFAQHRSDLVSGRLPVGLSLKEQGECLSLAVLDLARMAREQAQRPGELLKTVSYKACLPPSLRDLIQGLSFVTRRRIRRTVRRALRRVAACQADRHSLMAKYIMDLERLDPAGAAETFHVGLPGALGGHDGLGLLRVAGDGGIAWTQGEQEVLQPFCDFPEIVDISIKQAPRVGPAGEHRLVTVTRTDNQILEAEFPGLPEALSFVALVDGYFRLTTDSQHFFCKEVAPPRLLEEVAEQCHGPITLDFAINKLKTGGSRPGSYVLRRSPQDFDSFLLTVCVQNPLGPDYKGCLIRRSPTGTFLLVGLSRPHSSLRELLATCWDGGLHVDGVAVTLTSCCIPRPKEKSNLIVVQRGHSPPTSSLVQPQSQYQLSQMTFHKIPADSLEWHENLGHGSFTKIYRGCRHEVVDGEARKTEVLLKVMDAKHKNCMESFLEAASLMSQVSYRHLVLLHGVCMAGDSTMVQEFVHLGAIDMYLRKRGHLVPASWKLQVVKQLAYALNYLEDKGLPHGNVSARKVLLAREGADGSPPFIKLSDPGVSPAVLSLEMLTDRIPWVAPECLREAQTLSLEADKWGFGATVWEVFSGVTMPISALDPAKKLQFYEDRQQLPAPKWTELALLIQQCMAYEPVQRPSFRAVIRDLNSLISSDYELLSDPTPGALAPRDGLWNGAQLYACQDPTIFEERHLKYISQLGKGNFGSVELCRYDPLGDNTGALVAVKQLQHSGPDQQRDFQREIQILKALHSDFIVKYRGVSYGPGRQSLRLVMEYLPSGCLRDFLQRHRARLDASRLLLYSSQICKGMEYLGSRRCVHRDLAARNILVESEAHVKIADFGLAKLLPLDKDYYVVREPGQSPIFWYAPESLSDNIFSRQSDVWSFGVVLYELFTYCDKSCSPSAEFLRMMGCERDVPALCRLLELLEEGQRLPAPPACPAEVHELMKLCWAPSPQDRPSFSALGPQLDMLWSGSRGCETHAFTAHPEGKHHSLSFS
To be noted: JAK3; for remaining activity at 0.5 µM / remaining activity at 0.1 µM: read-out: % Enzyme Activity (relative to DMSO controls); for remaining activity at 0.1 µM: 100 nM.
Source text: as §1

For assay [4], the target named is 363 human kinases (including Aurora A/B/C) (Homo sapiens, UniProt Q5TCY1). To be noted: TTBK1; for remaining activity at 0.5 µM / remaining activity at 0.1 µM: read-out: % Enzyme Activity (relative to DMSO controls); for remaining activity at 0.1 µM: 100 nM.
Source text: as §1
The target in assay [5] is T2, 363 human kinases (including Aurora A/B/C) (Homo sapiens, UniProt Q8TDC3).
T2 sequence (Q8TDC3 1-778): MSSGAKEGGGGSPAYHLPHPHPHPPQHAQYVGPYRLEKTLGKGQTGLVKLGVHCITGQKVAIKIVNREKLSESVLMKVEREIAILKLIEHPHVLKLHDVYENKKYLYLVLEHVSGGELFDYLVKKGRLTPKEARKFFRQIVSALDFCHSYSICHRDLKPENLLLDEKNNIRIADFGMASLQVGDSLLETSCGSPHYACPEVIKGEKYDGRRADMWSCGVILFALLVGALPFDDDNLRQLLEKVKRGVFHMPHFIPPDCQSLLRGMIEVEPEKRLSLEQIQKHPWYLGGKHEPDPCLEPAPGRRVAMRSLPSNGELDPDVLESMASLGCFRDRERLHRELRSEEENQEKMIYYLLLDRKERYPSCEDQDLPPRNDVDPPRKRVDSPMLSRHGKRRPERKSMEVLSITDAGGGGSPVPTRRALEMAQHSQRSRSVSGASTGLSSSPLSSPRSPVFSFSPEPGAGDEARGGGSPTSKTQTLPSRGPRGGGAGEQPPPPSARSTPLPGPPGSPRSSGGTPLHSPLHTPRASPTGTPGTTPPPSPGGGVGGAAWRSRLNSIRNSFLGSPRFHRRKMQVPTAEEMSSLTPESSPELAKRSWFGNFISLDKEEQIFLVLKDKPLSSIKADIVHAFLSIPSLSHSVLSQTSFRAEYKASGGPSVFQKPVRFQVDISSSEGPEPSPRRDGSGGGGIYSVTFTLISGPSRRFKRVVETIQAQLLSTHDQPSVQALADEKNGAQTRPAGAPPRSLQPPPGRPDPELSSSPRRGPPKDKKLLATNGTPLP
The following applies: BRSK1, [ATP] 50 µM; for remaining activity at 0.5 µM / remaining activity at 0.1 µM: read-out: % Enzyme Activity (relative to DMSO controls); for remaining activity at 0.1 µM: 100 nM.
Source text: as §1

Assay [6] concerns the target 363 human kinases (including Aurora A/B/C) (Homo sapiens, UniProt Q9H2G2). To be noted: SLK/STK2; for remaining activity at 0.5 µM / remaining activity at 0.1 µM: read-out: % Enzyme Activity (relative to DMSO controls); for remaining activity at 0.1 µM: 100 nM.
Source text: as §1
For assay [7], the target named is T3, 363 human kinases (including Aurora A/B/C) (Homo sapiens, UniProt Q9NWZ3).
T3 sequence (Q9NWZ3 1-460): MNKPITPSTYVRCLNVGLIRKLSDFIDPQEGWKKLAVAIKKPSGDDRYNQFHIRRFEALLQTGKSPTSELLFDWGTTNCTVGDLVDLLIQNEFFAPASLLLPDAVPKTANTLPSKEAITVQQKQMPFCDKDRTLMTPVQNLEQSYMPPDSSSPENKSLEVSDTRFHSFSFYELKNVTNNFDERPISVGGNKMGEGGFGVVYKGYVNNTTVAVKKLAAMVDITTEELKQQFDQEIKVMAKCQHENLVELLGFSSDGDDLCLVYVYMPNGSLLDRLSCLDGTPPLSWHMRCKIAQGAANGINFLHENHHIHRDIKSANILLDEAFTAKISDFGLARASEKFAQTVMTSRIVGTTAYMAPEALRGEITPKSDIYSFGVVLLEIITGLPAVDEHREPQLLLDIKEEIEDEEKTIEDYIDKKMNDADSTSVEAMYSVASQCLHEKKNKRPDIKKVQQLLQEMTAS
The following applies: IRAK4; for remaining activity at 0.5 µM / remaining activity at 0.1 µM: read-out: % Enzyme Activity (relative to DMSO controls); for remaining activity at 0.1 µM: 100 nM.
Source text: as §1

Sequence of 363 human kinases (including Aurora A/B/C) (Homo sapiens, UniProt Q5TCY1) (Q5TCY1 whole entry): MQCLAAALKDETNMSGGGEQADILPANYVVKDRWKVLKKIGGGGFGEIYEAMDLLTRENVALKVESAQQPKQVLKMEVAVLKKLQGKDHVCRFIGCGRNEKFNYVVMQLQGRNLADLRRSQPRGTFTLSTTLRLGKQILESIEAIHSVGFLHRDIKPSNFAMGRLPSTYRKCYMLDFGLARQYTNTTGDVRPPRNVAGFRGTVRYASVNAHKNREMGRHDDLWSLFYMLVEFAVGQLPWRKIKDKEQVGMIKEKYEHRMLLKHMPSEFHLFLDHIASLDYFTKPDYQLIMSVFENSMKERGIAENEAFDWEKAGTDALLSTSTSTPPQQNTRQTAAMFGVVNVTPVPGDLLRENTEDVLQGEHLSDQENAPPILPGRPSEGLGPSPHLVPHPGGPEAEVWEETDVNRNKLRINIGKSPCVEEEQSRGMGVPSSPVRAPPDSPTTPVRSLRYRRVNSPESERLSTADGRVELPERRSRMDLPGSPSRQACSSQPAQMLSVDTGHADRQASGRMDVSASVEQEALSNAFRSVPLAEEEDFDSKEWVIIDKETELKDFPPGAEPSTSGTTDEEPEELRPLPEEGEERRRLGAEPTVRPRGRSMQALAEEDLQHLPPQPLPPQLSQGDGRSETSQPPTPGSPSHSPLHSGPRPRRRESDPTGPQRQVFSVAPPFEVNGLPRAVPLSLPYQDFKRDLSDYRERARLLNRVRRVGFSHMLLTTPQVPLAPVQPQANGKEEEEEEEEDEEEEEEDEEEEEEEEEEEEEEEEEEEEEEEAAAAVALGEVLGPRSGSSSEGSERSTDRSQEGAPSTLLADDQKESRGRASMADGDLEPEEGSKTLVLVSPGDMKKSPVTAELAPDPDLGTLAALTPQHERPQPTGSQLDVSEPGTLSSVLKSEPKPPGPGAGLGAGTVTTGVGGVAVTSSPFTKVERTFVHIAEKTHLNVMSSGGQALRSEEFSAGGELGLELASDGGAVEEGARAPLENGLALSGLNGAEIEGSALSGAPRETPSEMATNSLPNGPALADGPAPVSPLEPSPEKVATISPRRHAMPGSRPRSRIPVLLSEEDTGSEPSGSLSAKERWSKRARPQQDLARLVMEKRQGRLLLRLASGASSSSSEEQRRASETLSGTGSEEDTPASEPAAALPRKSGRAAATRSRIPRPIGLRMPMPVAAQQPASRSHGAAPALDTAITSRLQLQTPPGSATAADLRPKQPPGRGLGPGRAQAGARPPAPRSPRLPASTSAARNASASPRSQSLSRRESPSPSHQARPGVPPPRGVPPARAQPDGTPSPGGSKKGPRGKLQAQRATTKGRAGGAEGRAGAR
Sequence of 363 human kinases (including Aurora A/B/C) (Homo sapiens, UniProt P10721) (P10721 26-976): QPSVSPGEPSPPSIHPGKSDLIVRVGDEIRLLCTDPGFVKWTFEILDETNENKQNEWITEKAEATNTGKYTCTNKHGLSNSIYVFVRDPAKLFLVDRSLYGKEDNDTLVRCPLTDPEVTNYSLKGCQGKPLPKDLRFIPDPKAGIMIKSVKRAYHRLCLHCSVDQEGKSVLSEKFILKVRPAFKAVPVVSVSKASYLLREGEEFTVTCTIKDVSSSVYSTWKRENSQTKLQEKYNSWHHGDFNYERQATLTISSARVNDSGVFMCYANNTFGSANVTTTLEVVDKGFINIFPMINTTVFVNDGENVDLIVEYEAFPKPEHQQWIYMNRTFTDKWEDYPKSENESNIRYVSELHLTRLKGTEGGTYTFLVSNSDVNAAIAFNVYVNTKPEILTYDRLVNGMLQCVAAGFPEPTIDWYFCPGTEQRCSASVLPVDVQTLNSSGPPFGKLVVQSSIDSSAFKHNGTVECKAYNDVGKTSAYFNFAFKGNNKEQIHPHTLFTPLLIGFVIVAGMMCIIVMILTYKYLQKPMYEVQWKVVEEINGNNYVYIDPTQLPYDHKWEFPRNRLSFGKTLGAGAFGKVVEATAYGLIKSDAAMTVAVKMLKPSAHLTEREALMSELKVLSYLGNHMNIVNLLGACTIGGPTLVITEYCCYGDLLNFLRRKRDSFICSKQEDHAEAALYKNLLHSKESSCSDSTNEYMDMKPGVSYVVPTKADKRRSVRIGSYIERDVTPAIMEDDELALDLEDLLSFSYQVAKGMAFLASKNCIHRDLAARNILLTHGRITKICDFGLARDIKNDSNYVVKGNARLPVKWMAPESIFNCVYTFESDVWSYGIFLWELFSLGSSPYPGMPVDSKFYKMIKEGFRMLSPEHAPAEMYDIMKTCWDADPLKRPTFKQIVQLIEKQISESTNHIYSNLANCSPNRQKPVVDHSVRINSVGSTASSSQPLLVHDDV
Sequence of 363 human kinases (including Aurora A/B/C) (Homo sapiens, UniProt Q9H2G2) (Q9H2G2 whole entry): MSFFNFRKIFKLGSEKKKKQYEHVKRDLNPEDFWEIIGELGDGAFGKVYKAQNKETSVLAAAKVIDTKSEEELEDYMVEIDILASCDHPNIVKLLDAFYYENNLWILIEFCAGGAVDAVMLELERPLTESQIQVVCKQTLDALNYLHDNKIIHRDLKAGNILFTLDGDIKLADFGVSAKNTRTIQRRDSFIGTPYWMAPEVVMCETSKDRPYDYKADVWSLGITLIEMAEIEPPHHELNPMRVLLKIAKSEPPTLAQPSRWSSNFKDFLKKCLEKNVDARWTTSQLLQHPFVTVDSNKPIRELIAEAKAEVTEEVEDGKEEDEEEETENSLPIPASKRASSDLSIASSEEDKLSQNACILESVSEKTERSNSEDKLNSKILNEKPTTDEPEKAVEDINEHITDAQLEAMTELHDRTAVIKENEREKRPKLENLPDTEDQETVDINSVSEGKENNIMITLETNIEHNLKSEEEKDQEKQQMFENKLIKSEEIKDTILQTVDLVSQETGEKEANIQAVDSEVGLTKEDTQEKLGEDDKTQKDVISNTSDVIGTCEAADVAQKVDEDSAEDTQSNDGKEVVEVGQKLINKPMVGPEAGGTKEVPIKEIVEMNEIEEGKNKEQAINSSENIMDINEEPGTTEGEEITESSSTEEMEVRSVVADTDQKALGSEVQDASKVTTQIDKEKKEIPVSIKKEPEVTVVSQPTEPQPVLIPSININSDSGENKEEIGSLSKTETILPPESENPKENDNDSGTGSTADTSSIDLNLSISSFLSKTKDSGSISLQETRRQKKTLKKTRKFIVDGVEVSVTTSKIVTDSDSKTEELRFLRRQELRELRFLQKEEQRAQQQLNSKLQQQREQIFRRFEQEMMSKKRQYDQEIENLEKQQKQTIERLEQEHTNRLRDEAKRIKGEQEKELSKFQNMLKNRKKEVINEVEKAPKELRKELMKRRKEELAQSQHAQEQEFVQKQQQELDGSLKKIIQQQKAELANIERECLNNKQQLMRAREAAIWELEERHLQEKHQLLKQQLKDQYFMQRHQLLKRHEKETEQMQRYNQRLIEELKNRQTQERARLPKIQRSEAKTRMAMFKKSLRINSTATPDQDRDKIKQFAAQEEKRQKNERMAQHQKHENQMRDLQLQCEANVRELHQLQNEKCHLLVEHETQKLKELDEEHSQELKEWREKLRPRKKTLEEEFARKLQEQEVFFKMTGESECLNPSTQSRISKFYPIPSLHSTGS
Sequence of 363 human kinases (including Aurora A/B/C) (Homo sapiens, UniProt P19784) (P19784 whole entry): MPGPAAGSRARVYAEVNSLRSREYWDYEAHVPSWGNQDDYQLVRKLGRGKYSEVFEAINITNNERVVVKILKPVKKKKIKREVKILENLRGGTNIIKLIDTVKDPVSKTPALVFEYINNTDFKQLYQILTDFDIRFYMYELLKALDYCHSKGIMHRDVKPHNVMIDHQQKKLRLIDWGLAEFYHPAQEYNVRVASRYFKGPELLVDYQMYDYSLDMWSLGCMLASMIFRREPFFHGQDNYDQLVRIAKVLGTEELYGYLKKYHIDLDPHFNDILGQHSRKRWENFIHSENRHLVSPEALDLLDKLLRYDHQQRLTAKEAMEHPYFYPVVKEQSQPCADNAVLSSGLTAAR

With `O=C(c1cccc(Cl)c1F)N1CCN(Cc2cccc(Nc3nccs3)n2)CC1` [MK-8745], the “% Enzyme Activity (relative to DMSO controls)” value in assay [1] (500 nM) is 86.62%; in assay [2] (500 nM), 85.44%; in assay [3] (500 nM), 84.37%; in assay [4] (500 nM), 108.75%; in assay [5] (500 nM), 97.71%; in assay [6] (500 nM), 77.19%. Also, in assay [7] (500 nM), the “% Enzyme Activity (relative to DMSO controls)” value came to 79.25%. Further, the remaining activity at 0.5 µM in assay [1] (500 nM) is 88.2%; in assay [2] (500 nM) it was 85.8%; in assay [3] (500 nM) it was 85.6%; in assay [4] (500 nM) it was 111%; in assay [5] (500 nM) it was 98.2%; in assay [6] (500 nM) it was 77.7%. Moreover, the remaining activity at 0.5 µM in assay [7] (500 nM) came out at 79.4%.

Take `CCn1cc(-c2ccnc3[nH]c(-c4cccc(CN(C)C)c4)cc23)c(-c2ccc(NC(=O)N(C)C)cc2)n1` [GSK1070916]: the remaining activity at 0.1 µM in assay [1] is 76.5%; in assay [2], 89.1%; in assay [3], 97.2%; in assay [4], 115%; in assay [5], 85.9%; in assay [6], 95.2%. Also, in assay [7], the remaining activity at 0.1 µM is 84.3%.

Regarding `O=C(O)[C@]1(Cc2cccc(Nc3nccs3)n2)CC[C@@H](Oc2cccc(Cl)c2F)CC1` [MK-5108], the remaining activity at 0.1 µM in assay [1] amounted to 107%; in assay [2] it was 87.2%; in assay [3], 31.4%; in assay [4], 101%; in assay [5], 95.8%; in assay [6], 53.5%. In assay [7], the remaining activity at 0.1 µM came out at 47.6%. The remaining activity at 0.5 µM in assay [1] (500 nM) is 85.6%; in assay [2] (500 nM), 86.5%; in assay [3] (500 nM), 6.75%; in assay [4] (500 nM), 116%; in assay [5] (500 nM), 82.2%; in assay [6] (500 nM), 16.7%. Besides, in assay [7] (500 nM), the remaining activity at 0.5 µM came to 25.6%.
